Source: patent US8063048B2, “Acetylenyl-pyrazolo-pyrimidine derivatives” (Hoffmann-La Roche Inc., priority 2005, dated 2011)

Question: With `CC(C)(CO)NS(=O)(=O)c1cncc(C#Cc2cnn3c(C(F)F)cc(-c4ccc(C(F)(F)F)cc4)nc23)c1` [Example 27, 5-[7-Difluoromethyl-5-(4-trifluoromethyl-phenyl)-pyrazolo[1,5-a]pyrimidin-3-ylethynyl]-pyridine-3-sulfonic acid (2-hydroxy-1,1-dimethyl-ethyl)-amide] as the molecule, how does the melting point read?
Answer: 200 to 201 °C

Question: With `CC(C)(CO)NS(=O)(=O)c1ccc(C#Cc2cnn3c(C(F)F)cc(-c4ccc(C(F)(F)F)cc4)nc23)s1` [Example 169, 5-[7-Difluoromethyl-5-(4-trifluoromethyl-phenyl)-pyrazolo[1,5-a]pyrimidin-3-ylethynyl]-thiophene-2-sulfonic acid (2-hydroxy-1,1-dimethyl-ethyl)-amide] as the molecule, how does the melting point read?
Answer: 157 °C

Question: For `O=S(=O)(NC(CO)CO)c1ccc(C#Cc2cnn3c(C(F)(F)F)cc(-c4cccc(C(F)(F)F)c4)nc23)s1` [Example 271, 5-[7-Trifluoromethyl-5-(3-trifluoromethyl-phenyl)-pyrazolo[1,5-a]pyrimidin-3-ylethynyl]-thiophene-2-sulfonic acid (2-hydroxy-1-hydroxymethyl-ethyl)-amide], which melting point is on record?
Answer: 210 °C

Question: For `CNS(=O)(=O)c1cccc(C#Cc2cnn3c(C(F)F)cc(-c4ccc(C(F)(F)F)cc4)nc23)c1` [Example 145, 3-[7-Difluoromethyl-5-(4-trifluoromethyl-phenyl)-pyrazolo[1,5-a]pyrimidin-3-ylethynyl]-N-methyl-benzenesulfonamide], which melting point is on record?
Answer: 192 to 194 °C

Question: With `Cc1cc(-c2ccc(Cl)cc2)nc2c(C#Cc3ccc(N)nc3)cnn12` [Example 295, 5-[5-(4-Chloro-phenyl)-7-methyl-pyrazolo[1,5-a]pyrimidin-3-ylethynyl]-pyridin-2-ylamine] as the molecule, how does the melting point read?
Answer: 244 to 246 °C

Question: With `CC(C)(CO)NS(=O)(=O)c1cncc(C#Cc2cnn3ccc(-c4ccc(Cl)cc4)nc23)c1` [Example 74, 5-[5-(4-Chloro-phenyl)-pyrazolo[1,5-a]pyrimidin-3-ylethynyl]-pyridine-3-sulfonic acid (2-hydroxy-1,1-dimethyl-ethyl)-amide] as the molecule, how does the melting point read?
Answer: 185 to 186 °C

Question: For `NS(=O)(=O)c1cncc(C#Cc2cnn3ccc(-c4ccc(Cl)cc4)nc23)c1` [Example 73, 5-[5-(4-Chloro-phenyl)-pyrazolo[1,5-a]pyrimidin-3-ylethynyl]-pyridine-3-sulfonic acid amide], which melting point is on record?
Answer: 248 to 249 °C

Question: With `CCOc1cc(-c2cc(C(F)(F)F)n3ncc(C#Cc4ncc(S(=O)(=O)NC(C)(C)CO)s4)c3n2)ccc1C(F)(F)F` [Example 51, 2-[5-(3-Ethoxy-4-trifluoromethyl-phenyl)-7-trifluoromethyl-pyrazolo[1,5-a]pyrimidin-3-ylethynyl]-thiazole-5-sulfonic acid (2-hydroxy-1,1-dimethyl-ethyl)-amide] as the molecule, how does the melting point read?
Answer: 209 to 211 °C

Question: Which melting point does the source give for `Nc1ccc(C#Cc2cnn3c(C(F)(F)F)cc(-c4ccc(C(F)(F)F)cc4)cc23)cn1` [Example 235, 5-[7-Trifluoromethyl-5-(4-trifluoromethyl-phenyl)-pyrazolo[1,5-a]pyridin-3-ylethynyl]-pyridin-2-ylamine] here?
Answer: 243 to 245 °C

Question: Which melting point does the source give for `N#Cc1cc(C#Cc2cnn3c(C(F)(F)F)cc(-c4ccc(C(F)(F)F)cc4)nc23)cnc1N` [Example 219, 2-Amino-5-[7-trifluoromethyl-5-(4-trifluoromethyl-phenyl)-pyrazolo[1,5-a]pyrimidin-3-ylethynyl]-nicotinonitrile] here?
Answer: 264 °C

Question: With `CC(C)(C)NS(=O)(=O)c1ccc(C#Cc2cnn3c(C(F)F)cc(-c4cccc(C(F)(F)F)c4)nc23)s1` [Example 161, 5-[7-Difluoromethyl-5-(3-trifluoromethyl-phenyl)-pyrazolo[1,5-a]pyrimidin-3-ylethynyl]-thiophene-2-sulfonic acid tert-butylamide] as the molecule, how does the melting point read?
Answer: 201 °C

Question: For `Cc1cc(-c2cc(C(F)(F)F)n3ncc(C#Cc4ccc(S(=O)(=O)N5CCN(C)CC5)s4)c3n2)ccc1Cl` [Example 258, 5-(4-Chloro-3-methyl-phenyl)-3-[5-(4-methyl-piperazine-1-sulfonyl)-thiophen-2-ylethynyl]-7-trifluoromethyl-pyrazolo[1,5-a]pyrimidine], which melting point is on record?
Answer: 229 °C

Question: For `NS(=O)(=O)c1ccc(C#Cc2cnn3c(C(F)F)cc(-c4ccc(C(F)(F)F)cc4)nc23)s1` [Example 164, 5-[7-Difluoromethyl-5-(4-trifluoromethyl-phenyl)-pyrazolo[1,5-a]pyrimidin-3-ylethynyl]-thiophene-2-sulfonic acid amide], which melting point is on record?
Answer: 210 °C

Question: With `Cc1cc(-c2ccc(Cl)cc2)nc2c(C#Cc3cnc(N)nc3)cnn12` [Example 316, 5-[5-(4-Chloro-phenyl)-7-methyl-pyrazolo[1,5-a]pyrimidin-3-ylethynyl]-pyrimidin-2-ylamine] as the molecule, how does the melting point read?
Answer: 280 to 282 °C

Question: With `Nc1ccc(C#Cc2cnn3c(C(F)(F)F)cc(-c4cccc(C(F)(F)F)c4)nc23)cn1` [Example 259, 5-[7-Trifluoromethyl-5-(3-trifluoromethyl-phenyl)-pyrazolo[1,5-a]pyrimidin-3-ylethynyl]-pyridin-2-ylamine] as the molecule, how does the melting point read?
Answer: 177 °C

Question: Which melting point does the source give for `Cc1cc(-c2cc(C(F)(F)F)n3ncc(C#Cc4ncc(S(N)(=O)=O)s4)c3n2)ccc1Cl` [Example 104, 2-[5-(4-Chloro-3-methyl-phenyl)-7-trifluoromethyl-pyrazolo[1,5-a]pyrimidin-3-ylethynyl]-thiazole-5-sulfonic acid amide] here?
Answer: 123 °C

Question: For `O=S(=O)(c1ccc(C#Cc2cnn3c(C(F)(F)F)cc(-c4ccc(C(F)(F)F)cc4)nc23)s1)N1CCNCC1` [Example 260, 3-[5-(piperazine-1-sulfonyl)-thiophen-2-ylethynyl]-7-trifluoromethyl-5-(4-trifluoromethyl-phenyl)-pyrazolo[1,5-a]pyrimidine], which melting point is on record?
Answer: 223 °C

Question: With `Nc1ncc(C#Cc2cnn3c(C4CC4)cc(-c4ccc(Cl)cc4)nc23)cn1` [Example 313, 5-[5-(4-Chloro-phenyl)-7-cyclopropyl-pyrazolo[1,5-a]pyrimidin-3-ylethynyl]-pyrimidin-2-ylamine] as the molecule, how does the melting point read?
Answer: 243 to 246 °C

Question: With `FC(F)(F)c1ccc(-c2cc(C(F)(F)F)n3cnc(C#Cc4cccnc4)c3n2)cc1` [Example 268, 8-Pyridin-3-ylethynyl-4-trifluoromethyl-2-(4-trifluoromethyl-phenyl)-imidazo[1,5-a]pyrimidine] as the molecule, how does the melting point read?
Answer: 199 °C

Question: With `Nc1ncc(C#Cc2cnn3c(C(F)(F)F)cc(-c4ccc(Cl)cc4)nc23)cn1` [Example 317, 5-[5-(4-Chloro-phenyl)-7-trifluoromethyl-pyrazolo[1,5-a]pyrimidin-3-ylethynyl]-pyrimidin-2-ylamine] as the molecule, how does the melting point read?
Answer: 303 to 305 °C

Question: With `CCCc1cc(-c2ccc(Cl)cc2)nc2c(C#Cc3ccc(N)nc3)cnn12` [Example 305, 5-[5-(4-Chloro-phenyl)-7-propyl-pyrazolo[1,5-a]pyrimidin-3-ylethynyl]-pyridin-2-ylamine] as the molecule, how does the melting point read?
Answer: 215 to 217 °C

Question: For `CS(=O)(=O)c1cncc(C#Cc2cnn3c(C(F)(F)F)cc(-c4ccc(C(F)(F)F)cc4)nc23)c1` [Example 38, 3-(5-Methanesulfonyl-pyridin-3-ylethynyl)-7-trifluoromethyl-5-(4-trifluoromethyl-phenyl)-pyrazolo[1,5-a]pyrimidine], which melting point is on record?
Answer: 241 to 242 °C

Question: With `Cc1cc(-c2cc(C(F)F)n3ncc(C#Cc4ccc(S(=O)(=O)NC(C)(C)CO)s4)c3n2)ccc1Cl` [Example 175, 5-[5-(4-Chloro-3-methyl-phenyl)-7-difluoromethyl-pyrazolo[1,5-a]pyrimidin-3-ylethynyl]-thiophene-2-sulfonic acid (2-hydroxy-1,1-dimethyl-ethyl)-amide] as the molecule, how does the melting point read?
Answer: 145 °C

Question: For `COc1ccc(C#Cc2cnn3c(C4CC4)cc(-c4ccc(Cl)cc4)nc23)cc1S(=O)(=O)NC(C)(C)CO` [Example 69, 5-[5-(4-Chloro-phenyl)-7-cyclopropyl-pyrazolo[1,5-a]pyrimidin-3-ylethynyl]-N-(2-hydroxy-1,1-dimethyl-ethyl)-2-methoxy-benzenesulfonamide], which melting point is on record?
Answer: 253 to 256 °C

Question: For `NS(=O)(=O)c1ccc(C#Cc2cnn3c(C4CC4)cc(-c4ccc(C(F)(F)F)cc4)nc23)cc1` [Example 76, 4-[7-Cyclopropyl-5-(4-trifluoromethyl-phenyl)-pyrazolo[1,5-a]pyrimidin-3-ylethynyl]-benzenesulfonamide], which melting point is on record?
Answer: 228 to 230 °C

Question: With `Cc1cc(-c2cc(C(F)(F)F)n3ncc(C#Cc4cc(S(N)(=O)=O)c(F)cc4F)c3n2)ccc1Cl` [Example 111, 5-[5-(4-Chloro-3-methyl-phenyl)-7-trifluoromethyl-pyrazolo[1,5-a]pyrimidin-3-ylethynyl]-2,4-difluoro-benzenesulfonamide] as the molecule, how does the melting point read?
Answer: 294 °C

Question: For `Nc1ncc(C#Cc2ncn3c(C(F)(F)F)cc(-c4ccc(C(F)(F)F)cc4)nc23)cn1` [Example 285, 5-[4-Trifluoromethyl-2-(4-trifluoromethyl-phenyl)-imidazo[1,5-a]pyrimidin-8-ylethynyl]-pyrimidin-2-ylamine], which melting point is on record?
Answer: 294 °C

Question: Which melting point does the source give for `COc1ccc(C#Cc2cnn3c(C4CC4)cc(-c4ccc(C(F)(F)F)cc4)nc23)cc1S(=O)(=O)NC(C)(C)CO` [Example 81, 5-[7-Cyclopropyl-5-(4-trifluoromethyl-phenyl)-pyrazolo[1,5-a]pyrimidin-3-ylethynyl]-N-(2-hydroxy-1,1-dimethyl-ethyl)-2-methoxy-benzenesulfonamide] here?
Answer: 192 to 195 °C

Question: For `Cc1nc(C#Cc2cnn3c(C(F)(F)F)cc(-c4ccc(C(F)(F)F)cc4)nc23)sc1S(N)(=O)=O` [Example 54, 4-Methyl-2-[7-trifluoromethyl-5-(4-trifluoromethyl-phenyl)-pyrazolo[1,5-a]pyrimidin-3-ylethynyl]-thiazole-5-sulfonic acid amide], which melting point is on record?
Answer: 245 to 246 °C

Question: Which melting point does the source give for `O=S(=O)(c1ccc(C#Cc2cnn3c(C(F)F)cc(-c4ccc(C(F)(F)F)cc4)nc23)s1)N(CCO)CCO` [Example 269, 5-[7-Difluoromethyl-5-(4-trifluoromethyl-phenyl)-pyrazolo[1,5-a]pyrimidin-3-ylethynyl]-thiophene-2-sulfonic acid bis-(2-hydroxy-ethyl)-amide] here?
Answer: 122 °C

Question: With `NC(=O)c1ccc(C#Cc2cnc3c(C(F)(F)F)cc(-c4ccc(C(F)(F)F)cc4)cn23)cc1` [Example 203, 4-[8-Trifluoromethyl-6-(4-trifluoromethyl-phenyl)-imidazo[1,2-a]pyridin-3-ylethynyl]-benzamide] as the molecule, how does the melting point read?
Answer: 286 °C
